Results: paper PMC3994986 (Pigment cell & melanoma research, 2012)
Values belong to the substance of their own block, whether it stands above or below them. Ends that are not written are not given here.

Tests used:
HEK293 control cells = assay: pERK response in control HEK293 cells; type: cell-based, human; settings: Figure S2B and E; ligand not given
human MC1R [1] = biological target: T1, human MC1R (Homo sapiens, UniProt Q01726); type: cell-based
MC1R [2] = settings: ref Candille et al., 2007; cited from earlier work
MC1R [3] = assay: Inhibition of α-MSH-induced cAMP; type: cell-based; settings: Figure S1H
human MC1R [4] = biological target: T1, human MC1R; assay: cAMP accumulation in HEK293 cells stably expressing human MC1R wild type; type: cell-based; settings: for agonist character for MC1R-mediated cAMP signalling: HEK cells expressing human MC1R, relative to NDP-MSH
[5] = test system: MC1R variants D84E, V92M, R142H, R151C, R160W, D294H; type: cell-based, human
MAPK signalling = settings: ref Busca et al., 2000; cited from earlier work
[6] = test system: pERK (HEK293 cells expressing MC1R); type: cell-based, human; settings: PKA inhibitor H89; 300 nM HBD3 (Figure 2C and D); NDP-MSH (Figure S2D)
MC1R variant receptors = settings: ref Beaumont et al., 2005, 2007; cited from earlier work
NR4A receptor family = settings: ref Smith et al., 2008; cited from earlier work
[7] = test system: MC1R variants in HBL human melanoma cells; settings: ref Herraiz et al., 2009, 2011; cited from earlier work
dog Mc1r = settings: ref Candille et al., 2007; cited from earlier work
mouse Mc1r = settings: ref Candille et al., 2007, cited from earlier work
[8] = test system: mouse melan-a melanocytes; settings: concentrations up to 1uM, ref Candille et al., 2007; cited from earlier work

T1 sequence (Q01726 whole entry): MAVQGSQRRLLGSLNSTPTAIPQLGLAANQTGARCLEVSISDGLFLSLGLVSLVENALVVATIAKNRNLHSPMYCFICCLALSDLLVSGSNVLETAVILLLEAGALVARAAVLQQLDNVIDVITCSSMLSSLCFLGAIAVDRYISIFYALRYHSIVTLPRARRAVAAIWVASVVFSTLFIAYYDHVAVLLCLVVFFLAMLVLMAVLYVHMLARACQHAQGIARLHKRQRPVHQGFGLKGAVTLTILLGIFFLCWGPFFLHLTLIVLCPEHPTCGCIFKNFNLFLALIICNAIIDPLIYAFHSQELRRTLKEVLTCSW

competitive inhibition of NDP-MSH relative to ASIP-YY (cAMP) (human MC1R [1]): weaker competitive inhibitor to NDP-MSH
agonist character for MC1R-mediated cAMP signalling (human MC1R [4]; listed as β-defensin 3): weak partial agonist for cAMP signalling
Substance: human β-defensin 3 (GIINTLQKYYCRVRGGRCAVLSCLPKEEQIGKCSTRGRKCCRRKK; ends and bridges not checked; cysteine pairing not given here; UniProt P81534 23-67, looked up) [HBD3]
pERK induction in control cells (HEK293 control cells): no induction observed in control cells
inhibition of 1 nM NDP-MSH-induced cAMP (human MC1R [1]; 100 or 300 nM HBD3, two MC1R-expressing HEK clones (WTe, WT#21), 5–10 min, n = 3): able to inhibit the level of 1 nM NDP-MSH-induced cAMP
effect of increased concentration on level of inhibition (human MC1R [1]; 100 vs 300 nM HBD3, 1 nM NDP-MSH): did not significantly increase the level of inhibition
binding to MC1R (MC1R [2]): found to bind with high affinity to the melanocortin-1 receptor
displacement of NDP-MSH in ligand-binding assays (MC1R [2]): displace NDP-MSH in ligand-binding assays
competitive antagonism of α-MSH induction of cAMP (MC1R [3]): able to act as a competitive antagonist for α-MSH induction of cAMP
cAMP induction compared to 100 nM ASIP-YY (human MC1R [4]; 300 nM HBD3, Figure S1E and F): significant increase compared to 100 nM ASIP-YY
agonist character for MC1R-mediated cAMP signalling (human MC1R [4]): partial agonist, with both agonistic and antagonistic effects on cAMP signalling
activation of ERK by variants ([5]; 300 nM HBD3, 5 min, exception of R151C and D84E, 2–3 independent experiments, Figure 3A, S3B): With the exception of R151C and D84E, HBD3 stimulation produced a similar activation of ERK by variants

Substance: alpha-melanocyte stimulating hormone (SYSMEHFRWGKPV; ends and bridges not checked; UniProt P01189 138-150, looked up) [α-MSH]
induction of MAPK signalling (MAPK signalling): induce MAPK signalling

Substance: NDP- melanocyte stimulating hormone [NDP-MSH]
PKA dependence of MAPK activation [6]: This was also the case for NDP-MSH activation of MAPK
cAMP response of MC1R variant receptors (MC1R variant receptors): impaired cAMP responses
induction of the NR4A receptor family (NR4A receptor family): PKC and p38 are involved in the NDP-MSH induction of the NR4A receptor family
MAPK activation by variant receptors versus wild-type MC1R [7]: able to activate MAPK as efficiently as wild-type MC1R
induction of pERK over basal levels by variant receptors ([5]; 10 nM NDP-MSH, 5 min, 2–3 independent experiments, Figure 3A, S3A): all variant receptors show an induction of pERK over the basal levels
average pERK increase over basal levels, combined variant receptor cells ([5]; 10 nM NDP-MSH, 5 min, mean, n ≥ 3, normalized to GAPDH): 2.7 fold
pERK of combined variant receptor clones compared to control cells ([5]; 10 nM NDP-MSH, 5 min, n ≥ 3, t-test): significant increase compared to the levels of pERK in control cells

Substance: β-defensin 103 [CBD103]
binding to dog Mc1r (dog Mc1r): able to bind to dog and mouse Mc1r
Ki (mouse Mc1r; mouse Mc1r): 0.0151 µM
binding to mouse Mc1r (mouse Mc1r): able to bind to dog and mouse Mc1r
cAMP induction in mouse melanocytes [8]: did not induce cAMP
